This passage reports ED50 and EC50 results from patent publication US10792282B2, “Protein kinase C inhibitors and uses thereof” (Rigel Pharmaceuticals, Inc., priority 2013, dated 2020).

Assay [1] concerns PLP induced experimental autoimmune encephalomyelitis (EAE). As to the kind of experiment: PLP induced experimental autoimmune encephalomyelitis (EAE) model in SJL mice. The following applies: Mus musculus, both pretreatment and treatment dosing. In kind it is in vivo. An excerpt: EAE is a useful model for multiple sclerosis (MS), an autoimmune disease of the CNS that is caused by immune-cell infiltration of the CNS white matter. Inflammation and subsequent destruction of myelin cause progressive paralysis. Like the human disease, EAE is associated with peripheral activation of T cells autoreactive with myelin proteins, such as myelin basic protein (MBP), proteolipid protein (PLP), or myelin oligodendrocyte protein (MOG). Activated neuroantigen-specific T cells pass the blood-brain barrier, leading to focal mononuclear cell infiltration and demyelination. EAE can be induced in susceptible mouse strains by immunization with myelin-specific proteins in combination with adjuvant. In the SJL mouse model used in these studies, hind limb and tail paralysis is apparent by Day 10 after immunization, the peak of disease severity can be observed between Days 10 and 14, and a cycle of partial spontaneous remission followed by relapse can be observed up to Day 35.
In the SJL murine model of EAE, each mouse is sensitized with PLP/CFA. (150 μg PLP139-151 with 200 μg CFA in 0.05 ml of homogenate on four sites of hind flank for a total of 0.2 ml emulsion is used to induce EAE). […] In both protocols, clinical scores are monitored daily, and body weights are measured twice weekly. […]

The subject of assay [2] is PKC mediated IL-2 production. Put plainly: IL-2 ELISA, human primary T cell, anti CD3+CD28+ (whole cell functional assay). In kind it is cell-based. In a few lines:
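Anti-CD3/CD28-expanded human primary T cells (100,000/well), pre-incubated 1 h at 37° C with compound, then stimulated on plates coated with 1 μg/ml αCD3 and 5 μg/ml αCD28. Counter assay used 0.5 ng/ml PMA plus 0.1 μM ionomycin (final). Supernatant IL-2 measured by ELISA after 24 h.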

Setting [3] is: Homo sapiens, T-cell, 24 h, IL-2 production, human primary T cells stimulated with αCD3 and αCD28, 24 hours, IL-2 by ELISA, read-out: EC50.
[4] abbreviates: Homo sapiens, T-cell, human primary T cells stimulated with αCD3 and αCD28, IL-2 by ELISA, read-out: EC50 (blocked IL-2 production).
Where [5] appears, read: IL-2 production, human primary T cells stimulated with αCD3 and αCD28, 24 hours, IL-2 by ELISA, read-out: EC50.
The mark [6] stands for this setting: T-cell, IL-2 production, human primary T cells stimulated with αCD3 and αCD28, 24 hours, IL-2 by ELISA, read-out: EC50.

Molecules are shown by their SMILES. Read-outs that look alike come from different tables or passages of the source.

Take `Cn1nnn(-c2cc(Nc3ncc(F)c(N[C@@H]4C[C@@H]5CCCN5C(C)(C)C4)n3)c(F)cc2C2CC2)c1=O` [Compound 17, 1-(5-(4-((7R,8aS)-octahydro-5,5-dimethylindolizin-7ylamino)-5-fluoropyrimidin-2-yl-amino)-2-cyclopropyl-4-fluorophenyl)-4-methyl-1H-tetrazol-5(4H)-one]: the ED50 in assay [1] amounted to 30 mg/kg. In addition, the results for the EC50 in assay [2] (setting [3]) and in assay [2] (setting [4]) were below 0.1 µM and below 10 µM, respectively.

As for `Cn1nnn(-c2cc(Nc3ncc(F)c(N[C@@H]4C[C@@H]5C[C@@H](O)CN5C(C)(C)C4)n3)c(F)cc2C2CC2)c1=O` [Compound 68, 1-(5-(4-((2R,7R,8aR)-2-hydroxy-octahydro-5,5-dimethylindolizin-7-ylamino)-5-fluoropyrimidin-2-ylamino)-2-cyclopropyl-4-fluorophenyl)-4-methyl-1H-tetrazol-5(4H)-one], the values for the EC50 in assay [2] (setting [3]) and in assay [2] (setting [4]) were below 0.5 µM and below 10 µM, respectively.

For `Cc1nnnn1-c1cc(Nc2ncc(F)c(NC3CC(C)(C)N4CCCC4C3C)n2)ccc1F` (single isomer, unassigned) [Compound 70, 5-Fluoro-N2-(4-fluoro-3-(5-methyl-1H-tetrazol-1-yl)phenyl)-N4-(octahydro-5,5,8-trimethylindolizin-7-yl)pyrimidine-2,4-diamine], the EC50 in assay [2] (setting [3]) and in assay [2] (setting [4]) was below 10 µM each time.

On to `CC1(C)CC(Nc2nc(Nc3ccc(O[C@@H]4CCOC4)c(C#N)c3)ncc2F)CC2CCCN21` (single isomer, unassigned) [Compound 59], for which the EC50 in assay [2] (setting [5]) is below 0.5 µM.

Consider `Cn1nnn(-c2cc(Nc3ncc(F)c(NC4CCN5CCCC5C4)n3)c(F)cc2C2CC2)c1=O` (centres unmarked) [Compound 29], for which the concentration giving a half-maximal response (EC50) in assay [2] (setting [5]) is below 10 µM.

Regarding `C[C@H](O)COc1cc(F)c(Nc2ncc(F)c(N[C@@H]3C[C@@H]4CCCN4C(C)(C)C3)n2)cc1-n1nnn(C)c1=O` [Compound 81, 1-(2-((S)-2-hydroxypropoxy)-5-(4-((7R,8aS)-octahydro-5,5-dimethylindolizin-7-ylamino)-5-fluoropyrimidin-2-ylamino)-4-fluorophenyl)-4-methyl-1H-tetrazol-5(4H)-one], the 50% effective concentration (EC50) in assay [2] (setting [4]) was below 10 µM; in assay [2] (setting [6]) it was below 0.1 µM.

For the molecule `Cn1nnn(-c2cc(Nc3ncc(F)c(N[C@@H]4CCN5[C@@H](CCC5(C)C)C4)n3)c(F)cc2C2CC2)c1=O` (single isomer, unassigned) [Compound 36], the EC50 in assay [2] (setting [5]) was below 10 µM.

Take `CC1(C)CC(Nc2nc(Nc3cc(-n4cnnn4)c(C4CC4)cc3F)ncc2F)CC2CCCN21` (racemic) [Compound 54, (±)-N2-(4-cyclopropyl-2-fluoro-5-(1H-tetrazol-1-yl)phenyl)-5-fluoro-n^4-(octahydro-5,5-dimethylindolizin-7-yl)pyrimidine-2,4-diamine]: the EC50 in assay [2] (setting [5]) was below 0.1 µM.

Regarding `CC1C(Nc2nc(Nc3cc(N(C)C(=O)N(C)C)c(C4CC4)cc3F)ncc2F)CC(C)(C)N2CCCC12` (centres unmarked) [Compound 74], the EC50 in assay [2] (setting [5]) was below 0.5 µM.

`Cc1nnnn1-c1cc(Nc2ncc(F)c(NC3CCN4CCCC4C3)n2)c(F)cc1C1CC1` (racemic) [Compound 28, (±)-N2-(4-cyclopropyl-2-fluoro-5-(5-methyl-1H-tetrazol-1-yl)phenyl)-5-fluoro-n^4-(octahydroindolizin-7-yl)pyrimidine-2,4-diamine]: the figures for the EC50 in assay [2] (setting [3]) and in assay [2] (setting [4]) were below 0.1 µM and below 10 µM, respectively.

With `Cn1nnn(-c2cc(Nc3ncc(F)c(N[C@@H]4CCN5C(CCC5(C)C)C4)n3)c(F)cc2C2CC2)c1=O` (mixture of isomers) [Compound 25], the EC50 in assay [2] (setting [5]) is below 10 µM.

In the case of `Cn1nnn(-c2cc(Nc3ncc(C#N)c(N[C@@H]4C[C@@H]5CCCN5C(C)(C)C4)n3)c(F)cc2OCCO)c1=O` [Compound 78, 4-((7R,8aS)-octahydro-5,5-dimethylindolizin-7-ylamino)-2-(4-(2-hydroxyethoxy)-2-fluoro-5-(4,5-dihydro-4-methyl-5-oxotetrazol-1-yl)phenylamino)pyrimidine-5-carbonitrile], the EC50 is below 0.1 µM in assay [2] (setting [3]) and below 10 µM in assay [2] (setting [4]).

On to `CC(C)N1CCC(Oc2ccc(Nc3ncc(F)c(NC4CC5CCCN5C(C)(C)C4)n3)cc2OC(F)F)CC1` (centres unmarked) [Compound 10, (R/S, S/R, R/R, S/S)—N^2-(4-(1-isopropylpiperidin-4-yloxy)-3-(difluoromethoxy)phenyl)-5-fluoro-N^4-(octahydro-5,5-dimethylindolizin-7-yl)pyrimidine-2,4-diamine], for which the EC50 in assay [2] (setting [5]) was below 0.5 µM.

Regarding `CC1(C)CC(Nc2nc(Nc3ccc(OC4COC4)c(C#N)c3)ncc2F)CC2CCCN21` (single isomer, unassigned) [Compound 63, 5-(5-fluoro-4-(octahydro-5,5-dimethylindolizin-7-ylamino)pyrimidin-2-ylamino)-2-(oxetan-3-yloxy)benzonitrile], the EC50 in assay [2] (setting [3]) is below 0.5 µM; in assay [2] (setting [4]) it was below 10 µM.

Turning to `C[C@@H](O)COc1cc(F)c(Nc2ncc(F)c(N[C@@H]3C[C@@H]4CCCN4C(C)(C)C3)n2)cc1-n1nnn(C)c1=O` [Compound 82, 1-(5-(4-((7R,8aS)-5,5-dimethyloctahydroindolizin-7-ylamino)-5-fluoropyrimidin-2-ylamino)-4-fluoro-2-((R)-2-hydroxypropoxy)phenyl)-4-methyl-1H-tetrazol-5(4H)-one], the EC50 is below 0.1 µM in assay [2] (setting [6]); below 10 µM in assay [2] (T-cell, human primary T cells stimulated with αCD3 and αCD28, IL-2 by ELISA, read-out: EC50 (blocked IL-2 production)).

On to `CC(C)N1CCC(Oc2ccc(Nc3ncc(F)c(NC4CC5CCCN5C(C)(C)C4)n3)cc2OC(F)F)CC1` (centres unmarked) [Compound 7, (R/S, S/R, R/R, S/S)—N^2-(4-(1-isopropylpiperidin-4-yloxy)-3-(difluoromethoxy)phenyl)-5-fluoro-N^4-(octahydro-5,5-dimethylindolizin-7-yl)pyrimidine-2,4-diamine], for which the EC50 in assay [2] (setting [5]) was below 10 µM.

Turning to `Cn1nnn(-c2cc(Nc3ncc(C#N)c(N[C@@H]4CC5CCCN5C(C)(C)C4)n3)c(F)cc2C2CC2)c1=O` (some centres unmarked) [Compound 76], the EC50 in assay [2] (setting [3]) was below 0.1 µM; in assay [2] (setting [4]), below 10 µM.

As for `CC1(C)CC(Nc2nc(Nc3ccc(O[C@@H]4CCOC4)c(C#N)c3)ncc2F)CC2CCCN21` (stereo partly drawn) [Compound 57, 2-((R)-tetrahydrofuran-3-yloxy)-5-(5-fluoro-4-(octahydro-5,5-dimethylindolizin-7-ylamino)pyrimidin-2-ylamino)benzonitrile], the figures for the EC50 in assay [2] (setting [3]) and in assay [2] (setting [4]) were below 0.5 µM and below 10 µM, respectively.

Regarding `Cn1nnn(-c2cc(Nc3ncc(F)c(NC4CCN5C(CCC5(C)C)C4)n3)c(F)cc2C2CC2)c1=O` (single isomer, unassigned) [Compound 34, 1-(5-(5-fluoro-4-(octahydro-3,3-dimethylindolizin-7-ylamino)pyrimidin-2-ylamino)-2-cyclopropyl-4-fluorophenyl)-4-methyl-1H-tetrazol-5(4H)-one], the 50% effective concentration (EC50) in assay [2] (setting [3]) and in assay [2] (setting [4]) was below 10 µM in each case.

Turning to `Cn1nnn(-c2cc(Nc3ncc(F)c(N[C@H]4C[C@@H]5CC(F)(F)CN5C(C)(C)C4)n3)c(F)cc2C2CC2)c1=O` [Compound 42, 1-(5-(4-((7S,8aR)-2,2-difluoro-octahydro-5,5-dimethylindolizin-7-ylamino)-5-fluoropyrimidin-2-ylamino)-2-cyclopropyl-4-fluorophenyl)-4-methyl-1H-tetrazol-5(4H)-one], the EC50 in assay [2] (setting [3]) and in assay [2] (setting [4]) was below 10 µM throughout.

Regarding `Cn1nnn(-c2cc(Nc3ncc(F)c(N[C@H]4C[C@@H]5CCC(=O)N5C(C)(C)C4)n3)c(F)cc2C2CC2)c1=O` (racemic) [Compound 32, 1-(5-(5-fluoro-4-(hexahydro-5,5-dimethylindolizin-3(5H)-one-7-ylamino)pyrimidin-2-ylamino)-2-cyclopropyl-4-fluorophenyl)-4-methyl-1H-tetrazol-5(4H)-one], the EC50 in assay [2] (setting [3]) and in assay [2] (setting [4]) was below 10 µM in each case.
